Laboratory results as given in the supplement of paper PMC10307832.

How the values were obtained:
Test in all cases: relative viability (nuclei count vs DMSO), 5 days (fraction); higher = more cells survive
NCI-H2342 = tested on: NCI-H2342
How it was run: (§1)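 Relative viability equals treated-well nuclei counts divided by vehicle-well nuclei counts. Counts came from 4× images of lung cancer cell lines grown in 1536-well plates for 5 days after pin-tool dosing on the day after seeding. Dosing used one drug alone or a fixed anchor-drug dose plus five library-drug doses (not always all listed) in √10 steps, and values are medians of duplicate plates.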

NCI-H2405 = tested on: NCI-H2405
How it was run: as §1

LXF-289 = tested on: LXF-289
How it was run: as §1

NCI-H322M = tested on: NCI-H322M
How it was run: as §1

PC-14 = tested on: PC-14
How it was run: as §1

HCC-827 = tested on: HCC-827
How it was run: as §1

HCC-78 = tested on: HCC-78
How it was run: as §1

EKVX = tested on: EKVX
How it was run: as §1

LK-2 = tested on: LK-2
How it was run: as §1

NCI-H1975 = tested on: NCI-H1975
How it was run: as §1

RERF-LC-KJ = tested on: RERF-LC-KJ
How it was run: as §1

EPLC-272H = tested on: EPLC-272H
How it was run: as §1

NCI-H23 = tested on: NCI-H23
How it was run: as §1

NCI-H2126 = tested on: NCI-H2126
How it was run: as §1

SW 1573 = tested on: SW 1573
How it was run: as §1

LU99A = tested on: LU99A
How it was run: as §1

EMC-BAC-2 = tested on: EMC-BAC-2
How it was run: as §1

NCI-H1666 = tested on: NCI-H1666
How it was run: as §1

ChaGo-K-1 = tested on: ChaGo-K-1
How it was run: as §1

SW 900 = tested on: SW 900
How it was run: as §1

LCLC-103H = tested on: LCLC-103H
How it was run: as §1

SK-LU-1 = tested on: SK-LU-1
How it was run: as §1

With `O=c1cc(-c2cccc3c2Sc2ccccc2S3)oc(N2CCOCC2)c1` + O=C(CCCCCCC(=O)Nc1ccccc1)NO [Vorinostat] (partner 1 µM) as the compound, how does the relative viability (NCI-H2342; first compound 0.08 µM) read?
The relative viability was 0.752.

What about the relative viability (NCI-H2342; first compound 0.253 µM) of the same compound?
The relative viability was 0.831.

And the relative viability (NCI-H2342; first compound 0.8 µM)?
The relative viability was 0.8.

And the relative viability (NCI-H2342; first compound 2.53 µM)?
Its relative viability is 0.691.

And the relative viability (NCI-H2342; first compound 8 µM)?
The relative viability was 0.699.

And the relative viability (NCI-H2405; first compound 0.08 µM)?
The relative viability was 0.925.

And the relative viability (NCI-H2405; first compound 0.253 µM)?
The relative viability was 0.99.

What about the relative viability (NCI-H2405; first compound 0.8 µM) of the same compound?
Its relative viability is 1.06.

And the relative viability (NCI-H2405; first compound 2.53 µM)?
The relative viability was 0.842.

And the relative viability (NCI-H2405; first compound 8 µM)?
Its relative viability is 0.983.

And the relative viability (LXF-289; first compound 0.08 µM)?
Its relative viability is 0.902.

And the relative viability (LXF-289; first compound 0.253 µM)?
The relative viability was 0.784.

What about the relative viability (LXF-289; first compound 0.8 µM) of the same compound?
Its relative viability is 0.782.

What about the relative viability (LXF-289; first compound 2.53 µM) of the same compound?
The relative viability was 0.661.

And the relative viability (LXF-289; first compound 8 µM)?
Its relative viability is 0.819.

And the relative viability (NCI-H322M; first compound 0.08 µM)?
Its relative viability is 0.839.

And the relative viability (NCI-H322M; first compound 0.253 µM)?
Its relative viability is 1.01.

And the relative viability (NCI-H322M; first compound 0.8 µM)?
The relative viability was 0.948.

And the relative viability (NCI-H322M; first compound 2.53 µM)?
The relative viability was 0.825.

And the relative viability (NCI-H322M; first compound 8 µM)?
The relative viability was 0.867.

And the relative viability (PC-14; first compound 0.08 µM)?
The relative viability was 0.734.

What about the relative viability (PC-14; first compound 0.253 µM) of the same compound?
Its relative viability is 0.879.

And the relative viability (PC-14; first compound 0.8 µM)?
Its relative viability is 0.685.

And the relative viability (PC-14; first compound 2.53 µM)?
Its relative viability is 0.628.

And the relative viability (PC-14; first compound 8 µM)?
Its relative viability is 0.701.

What about the relative viability (HCC-827; first compound 0.08 µM) of the same compound?
Its relative viability is 0.768.

And the relative viability (HCC-827; first compound 0.253 µM)?
Its relative viability is 0.945.

What about the relative viability (HCC-827; first compound 0.8 µM) of the same compound?
Its relative viability is 0.77.

What about the relative viability (HCC-827; first compound 2.53 µM) of the same compound?
The relative viability was 0.476.

And the relative viability (HCC-827; first compound 8 µM)?
The relative viability was 0.923.

What about the relative viability (HCC-78; first compound 0.08 µM) of the same compound?
Its relative viability is 0.478.

What about the relative viability (HCC-78; first compound 0.253 µM) of the same compound?
The relative viability was 0.529.

And the relative viability (HCC-78; first compound 0.8 µM)?
Its relative viability is 0.376.

And the relative viability (HCC-78; first compound 2.53 µM)?
The relative viability was 0.39.

What about the relative viability (HCC-78; first compound 8 µM) of the same compound?
The relative viability was 0.474.

What about the relative viability (EKVX; first compound 0.08 µM) of the same compound?
Its relative viability is 0.862.

What about the relative viability (EKVX; first compound 0.253 µM) of the same compound?
Its relative viability is 0.839.

What about the relative viability (EKVX; first compound 0.8 µM) of the same compound?
Its relative viability is 0.601.

What about the relative viability (EKVX; first compound 2.53 µM) of the same compound?
The relative viability was 0.675.

What about the relative viability (EKVX; first compound 8 µM) of the same compound?
The relative viability was 0.569.

What about the relative viability (LK-2; first compound 0.08 µM) of the same compound?
The relative viability was 0.261.

And the relative viability (LK-2; first compound 0.253 µM)?
Its relative viability is 0.327.

What about the relative viability (LK-2; first compound 0.8 µM) of the same compound?
The relative viability was 0.369.

And the relative viability (LK-2; first compound 2.53 µM)?
The relative viability was 0.287.

What about the relative viability (LK-2; first compound 8 µM) of the same compound?
The relative viability was 0.358.

And the relative viability (NCI-H1975; first compound 0.08 µM)?
The relative viability was 0.687.

And the relative viability (NCI-H1975; first compound 0.253 µM)?
Its relative viability is 0.827.

What about the relative viability (NCI-H1975; first compound 0.8 µM) of the same compound?
The relative viability was 0.707.

And the relative viability (NCI-H1975; first compound 2.53 µM)?
Its relative viability is 0.671.

What about the relative viability (NCI-H1975; first compound 8 µM) of the same compound?
Its relative viability is 0.749.

And the relative viability (RERF-LC-KJ; first compound 0.08 µM)?
Its relative viability is 0.558.

And the relative viability (RERF-LC-KJ; first compound 0.253 µM)?
Its relative viability is 0.64.

What about the relative viability (RERF-LC-KJ; first compound 0.8 µM) of the same compound?
The relative viability was 0.713.

And the relative viability (RERF-LC-KJ; first compound 2.53 µM)?
The relative viability was 0.655.

What about the relative viability (RERF-LC-KJ; first compound 8 µM) of the same compound?
Its relative viability is 0.666.

And the relative viability (EPLC-272H; first compound 0.08 µM)?
The relative viability was 0.449.

And the relative viability (EPLC-272H; first compound 0.253 µM)?
The relative viability was 0.363.

What about the relative viability (EPLC-272H; first compound 0.8 µM) of the same compound?
Its relative viability is 0.291.

What about the relative viability (EPLC-272H; first compound 2.53 µM) of the same compound?
The relative viability was 0.629.

What about the relative viability (EPLC-272H; first compound 8 µM) of the same compound?
The relative viability was 0.441.

What about the relative viability (NCI-H23; first compound 0.08 µM) of the same compound?
The relative viability was 0.477.

And the relative viability (NCI-H23; first compound 0.253 µM)?
The relative viability was 0.593.

What about the relative viability (NCI-H23; first compound 0.8 µM) of the same compound?
Its relative viability is 0.669.

What about the relative viability (NCI-H23; first compound 2.53 µM) of the same compound?
The relative viability was 0.543.

And the relative viability (NCI-H23; first compound 8 µM)?
The relative viability was 0.516.

And the relative viability (NCI-H2126; first compound 0.08 µM)?
Its relative viability is 0.722.

What about the relative viability (NCI-H2126; first compound 0.253 µM) of the same compound?
Its relative viability is 0.781.

And the relative viability (NCI-H2126; first compound 0.8 µM)?
Its relative viability is 0.792.

What about the relative viability (NCI-H2126; first compound 2.53 µM) of the same compound?
Its relative viability is 0.823.

And the relative viability (NCI-H2126; first compound 8 µM)?
The relative viability was 0.74.

And the relative viability (SW 1573; first compound 0.08 µM)?
The relative viability was 0.702.

What about the relative viability (SW 1573; first compound 0.253 µM) of the same compound?
The relative viability was 0.933.

What about the relative viability (SW 1573; first compound 0.8 µM) of the same compound?
The relative viability was 1.01.

And the relative viability (SW 1573; first compound 2.53 µM)?
Its relative viability is 0.771.

And the relative viability (SW 1573; first compound 8 µM)?
The relative viability was 0.907.

What about the relative viability (LU99A; first compound 0.08 µM) of the same compound?
The relative viability was 0.429.

And the relative viability (LU99A; first compound 0.253 µM)?
The relative viability was 0.499.

What about the relative viability (LU99A; first compound 0.8 µM) of the same compound?
The relative viability was 0.639.

What about the relative viability (LU99A; first compound 2.53 µM) of the same compound?
Its relative viability is 0.514.

What about the relative viability (LU99A; first compound 8 µM) of the same compound?
Its relative viability is 0.669.

And the relative viability (EMC-BAC-2; first compound 0.08 µM)?
Its relative viability is 0.35.

What about the relative viability (EMC-BAC-2; first compound 0.253 µM) of the same compound?
The relative viability was 0.471.

And the relative viability (EMC-BAC-2; first compound 0.8 µM)?
The relative viability was 0.524.

What about the relative viability (EMC-BAC-2; first compound 2.53 µM) of the same compound?
The relative viability was 0.607.

And the relative viability (EMC-BAC-2; first compound 8 µM)?
Its relative viability is 0.48.

What about the relative viability (NCI-H1666; first compound 0.08 µM) of the same compound?
The relative viability was 1.

And the relative viability (NCI-H1666; first compound 0.253 µM)?
Its relative viability is 1.15.

And the relative viability (NCI-H1666; first compound 0.8 µM)?
Its relative viability is 0.963.

What about the relative viability (NCI-H1666; first compound 2.53 µM) of the same compound?
The relative viability was 1.02.

And the relative viability (NCI-H1666; first compound 8 µM)?
The relative viability was 1.06.

And the relative viability (ChaGo-K-1; first compound 0.08 µM)?
Its relative viability is 0.765.

And the relative viability (ChaGo-K-1; first compound 0.253 µM)?
The relative viability was 0.859.

And the relative viability (ChaGo-K-1; first compound 0.8 µM)?
Its relative viability is 0.876.

What about the relative viability (ChaGo-K-1; first compound 2.53 µM) of the same compound?
The relative viability was 0.753.

And the relative viability (ChaGo-K-1; first compound 8 µM)?
The relative viability was 0.847.

And the relative viability (SW 900; first compound 0.253 µM)?
Its relative viability is 0.529.

And the relative viability (SW 900; first compound 0.8 µM)?
Its relative viability is 0.493.

And the relative viability (SW 900; first compound 2.53 µM)?
The relative viability was 0.427.

And the relative viability (SW 900; first compound 8 µM)?
The relative viability was 0.393.

And the relative viability (LCLC-103H; first compound 0.08 µM)?
The relative viability was 0.757.

And the relative viability (LCLC-103H; first compound 0.253 µM)?
Its relative viability is 0.814.

And the relative viability (LCLC-103H; first compound 0.8 µM)?
Its relative viability is 0.66.

What about the relative viability (LCLC-103H; first compound 2.53 µM) of the same compound?
The relative viability was 0.727.

What about the relative viability (LCLC-103H; first compound 8 µM) of the same compound?
Its relative viability is 0.864.

What about the relative viability (SK-LU-1; first compound 0.08 µM) of the same compound?
Its relative viability is 0.8.

What about the relative viability (SK-LU-1; first compound 0.253 µM) of the same compound?
The relative viability was 0.894.

And the relative viability (SK-LU-1; first compound 0.8 µM)?
The relative viability was 0.877.

What about the relative viability (SK-LU-1; first compound 2.53 µM) of the same compound?
The relative viability was 0.709.

What about the relative viability (SK-LU-1; first compound 8 µM) of the same compound?
The relative viability was 0.705.
